Measurements: patent publication US9232785B2, “Method for reducing sunburn damage in plants” (BASF SE, priority 2009, dated 2016)

Tests used:
[1] = tested on: sunburn injury on winter barley; assay: Preventive action on winter barley against sunburn injury, field trial (Example 3); assay type: in vivo; conditions: Germany, applied at BBCH 53, evaluated 22 days after application, 0 = as untreated control, 100 = no sunburn symptoms, UV filter 2 L/ha (500 g ai/ha), Actives A & B 0.8 & 0.8 L/ha (240 & 297 g ai/ha)
Method: As active substance a mixture of active substances was used called “Actives A & B”, which was prepared by mixing Active A and Active B. Active A was a fungicidal suspension concentrate comprising 6 wt % epoxiconazol, 20.8 wt % boscalid, 11.2-12.6 wt % fatty alcohol alkoxylate, C8-alkyl glucoside, and phenolsulfonic acid-formaldehyde-polycondensate sodium salt (commercially available pesticide formulation from BASF SE as Champion®). Active B a fungicidal suspoemulsion comprising 20.6 wt % fenpropimorph, 11 wt % pyraclostrobin, 4.1 wt % epoxiconazol, 20.5 wt % solvent naphtha, 11 wt % fatty alcohol ethoxylate and 4.8 wt % phenolsulfonic acid-formaldehyde-polycondensate sodium salt (commercially available pesticide formulation from BASF SE as Diamant®). UV Filter A and UV filter B were prepared as described in examples 1 and 2.
The biological trial was conducted under field conditions in Germany. […] The level of sunburn injury was evaluated 22 days after application (% estimation of destroyed leaf area).
The sunburn injury assessments were converted into efficacies. […] The expected efficacies of active compound mixtures were determined using Colby's formula [R. S. Colby, “Calculating synergistic and antagonistic responses of herbicide combinations”, Weeds 15, 20-22 (1967)] and compared with the observed efficacies.

[2] = tested on: sunburn injury on barley cultivar Finita; assay: Preventive action on winter barley against sunburn injury, field trial, two timings (Example 5); assay type: in vivo; conditions: applied at BBCH 53, Actives A & B 0.8 l/ha, UV Filter 2.0 l/ha, Surround 10 kg/ha, % destroyed leaf area
Method: The biological trial was conducted under field conditions in Germany. The barley cultivar […] was planted and grown under standard conditions with adequate supply of water and nutrients. At BBCH 53 0.8 l/ha of Actives A & B and 2.0 l/ha UV Filter A or B were applied. For comparison, the Surround® (commercially available from Engelhard Corp., wettable powder comprising 95 wt % kaolin) was applied at a rate of 10 kg/ha. The level of sunburn injury was evaluated 15 and 22 days after application (% estimation of destroyed leaf area).

Compound: COCCOCCOCCOCCOCCOCCOCCOC(=O)C(C#N)=C(c1ccccc1)c1ccccc1 [UV Filter A, 2-Cyano-3,3-diphenyl-acrylsäure-[Pluriol A350E]-ester]
- Efficacy [1]: 4
- % sunburn injury 15 days after application [2]: 38%
- % sunburn injury 22 days after application [2]: 96%

Compound: COCCOCCOCCOCCOCCOCCOCCOC(=O)CCc1cc(-n2nc3ccccc3n2)c(O)c(C(C)(C)C)c1 [UV Filter B, 3-(3-Benzotriazol-2-yl-5-tert-butyl-4-hydroxyphenyl)-propiosäure-[Pluriol A350E]-ester]
- Efficacy [1]: 3
- % sunburn injury 15 days after application [2]: 36%
- % sunburn injury 22 days after application [2]: 97%
